# Laboratory results from patent US10568819B2, “Skin enhancing compositions and methods” (Sytheon Limited, priority 2016, dated 2020).
# Read-outs that look alike come from different tables or passages of the source.
# Key:
# MMP3 = assay: PCR array gene expression, MMP3; type: cell-based
# Description: (§1) In light of the efficacy of the aryl alkanones ire addressing many of the molecular/biomolecular processes damaged by UV exposure, a study was undertaken to assess whether these compounds would also be effective in addressing symptoms associated with non-UV induced skin aging including chronological aging as well as disease conditions that likewise adversely affect skin processes. The studies conducted involves DNA microarray, PCR array, cell culture, enzyme inhibitory activity.
# TIMP4 = assay: DNA microarray gene expression, TIMP4; type: cell-based
# Description: as §1
# COL11A1 = assay: PCR array gene expression, COL11A1; type: cell-based
# Description: as §1
# Melanocytes = assay: UVA-induced delayed formation of CPDs (dCPDs) in melanocytes; type: cell-based; settings: 25 μg/ml, UVA irradiation first then product added
# Procedure: (§2) A second study was carried out, similar to the first, except that this time the analysis was in assessing the efficacy, if any, of the presently taught aryl alkanones in reducing UVA-induced delayed formation of CPDs (dCPDs).
# TNS2 = assay: DNA microarray gene expression, TNS2; type: cell-based
# Description: as §1
# COL14A1 = assay: PCR array gene expression, COL14A1; type: cell-based
# Description: as §1
# Fibroblasts = assay: UVA-induced delayed formation of CPDs (dCPDs) in fibroblasts; type: cell-based; settings: 25 μg/ml, product incubated for 24 hrs. plus UVA irradiation
# Procedure: as §2
# Cell # = assay: Cell number (Sulforhodamine B assay) after UVA irradiation; type: cell-based; settings: 3 hours after irradiation
# Procedure: The study was conducted in accordance with the protocols of Berridge et al, (M V Berridge & A S Tan, Characterization of the cellular reduction of 3-(4,5-dimethylthiazol-2-yl)-2,5-diphenyltetrazolium bromide (MTT): subcellular localization, substrate dependence, and involvement of mitochondrial electron transport in MTT reduction, Arch. Biochem. Biophys. 303:474-482, 1993) and Voigt (W Voigt, Sulforhodamine B assay and chemosensitivity, Methods Mol Med, 110:39-48, 2005). Cellular metabolism is determined using the MTT assay to measure the activity of mitochondrial dehydrogenases, such as succinate dehydrogenase, which are implicated in the respiratory electron transport chain in mitochondria [M V Berridge & Tan Biochem Biophys, 303:474-482, 1993]. Additionally, the samples were subject to the Mitochondrial ToxGlo Assay (Promega Technical Manual, G8000 and G8001), which is a cell-based assay method that has been developed to quantify potential mitochondrial dysfunction as a result of xenobiotic exposure, using a sequential-addition, multiplexed chemistry.
# Table 8 presents the result on the effect of UVA radiation on cell metabolism 3 hours after irradiation. As indicated, Compound 1 improves cell metabolism, even at a very low use concentration. Table 9 presents the effect of 24 hour pre-incubation on UVA-induced mitochondrial damage measured by ATP production in human dermal fibroblasts. […] Finally. Table 10 presents the effect of 24 hour pre-incubation on UVA-induced plasma membrane disruption in human dermal fibroblasts. As indicated, Compound 1 almost completely reversed plasma membrane disruption, again at a very low use concentration.
# TIMP3 = assay: PCR array gene expression, TIMP3; type: cell-based
# Description: as §1
# NOX = settings: Keratinocytes
compound,measurement,setting,value
"COc1cc(CC(C(C)=O)C(C)=O)ccc1O [Compound 1, Acetyl Zingerone]","PCR array, MMP3 gene expression",MMP3,−2.5
same,"Microarray, TIMP4 gene expression",TIMP4,+1.6
same,"PCR array, COL11A1 gene expression",COL11A1,+1.9
same,"UVA/% Reduction in dCPDs vs. control, 1 hr.",Melanocytes; 1 hr.,1 hr.: ↓70%
same,"UVA/% Reduction in dCPDs vs. control, 2 hr.",Melanocytes; 2 hr.,2 hr.: ↓25%
same,"UVA/% Reduction in dCPDs vs. control, 4 hr.",Melanocytes; 4 hr.,4 hr.: ~0%
same,"Microarray, TNS2 gene expression",TNS2,+1.7
same,"PCR array, COL14A1 gene expression",COL14A1,+2.1
same,"UVA/% Reduction in dCPDs vs. control, 0 hr. (Reduction in iCPDs)",Fibroblasts; 0 hr.,^+0 hr.: ↓45%
same,"UVA/% Reduction in dCPDs vs. control, 1 hr.",Fibroblasts; 1 hr.,1 hr.: ↓20%
same,"UVA/% Reduction in dCPDs vs. control, 2 hr.",Fibroblasts; 2 hr.,2 hr.: ↓18%
same,Cell # (% Control),Cell #; 0.5 μg/ml,99 % Control
same,Cell # (% Control),Cell #; 2 μg/ml,101 % Control
same,Cell # (% Control),Cell #; 5 μg/ml,95 % Control
same,"PCR array, TIMP3 gene expression",TIMP3,+2.4
same,reduction of NOX activity,"NOX; UVA, 25 μg/ml",−27%
same,reduction of NOX activity,"NOX; UVA, 50 μg/ml",−38%
same,reduction of NOX activity,"NOX; UVB, 25 μg/ml",−11%
same,reduction of NOX activity,"NOX; UVB, 50 μg/ml",−29%
